Assay: Inhibition of human recombinant ALR2

SMILES	IC50
O=C(c1ccc(O)cc1)c1cncc(-c2ccc(O)cc2)n1	41.4 µM
O=C1O/C(=C\c2ccc(O)c(Br)c2)C(c2ccc(O)cc2)=C1Cl	46.2 µM
O=C(c1ccc(O)cc1)c1nc(-c2ccc(O)cc2)c[nH]1	21.4 µM
O=C(c1ccc(O)cc1)c1ncc(-c2ccc(O)cc2)nc1C(=O)c1ccc(O)cc1	19.4 µM
O=C1C=C(c2ccc(O)cc2)/C(=C/c2cc(Br)c(O)c(Br)c2)O1	> 57 µM
O=C1C=C(c2cc(Br)c(O)c(Br)c2)/C(=C/c2cc(Br)c(O)c(Br)c2)O1 [RUBROLIDE A]	19.8 µM
O=C1C=C(c2ccc(O)c(Br)c2)/C(=C/c2cc(Br)c(O)c(Br)c2)O1 [RUBROLIDE J]	48.1 µM

These reach a lower IC50. Values come first.

IC50	SMILES
18.7 µM	O=C1O/C(=C\c2cc(Br)c(O)c(Br)c2)C(c2cc(Br)c(O)c(Br)c2)=C1Cl
16.9 µM	O=C1O/C(=C\c2ccc(O)c(Br)c2)C(c2ccc(O)c(Br)c2)=C1Cl
12.7 µM	O=C1O/C(=C\c2cc(Br)c(O)c(Br)c2)C(c2ccc(O)c(Br)c2)=C1Cl
3.6 µM	O=C1NC(=O)[C@@]2(CCOc3ccc(F)cc32)N1 [SORBINIL]
0.8 µM	O=C1O/C(=C\c2cc(Br)c(O)c(Br)c2)C(c2ccc(O)cc2)=C1Cl
0.6 µM	O=c1oc(-c2ccc(O)cc2)cn2cc(-c3ccc(O)c(I)c3)c(-c3ccc(O)cc3)c12 [LUKIANOL B]

Reference: ChEMBL document CHEMBL1158086, “Phenolic marine natural products as aldose reductase inhibitors” (J Nat Prod, 2006)
